Test results taken from patent US4605744A, “Imidazole derivatives” (Hoffmann-La Roche Inc., priority 1985, dated 1986).
Structures can show the parent of a compound that is named as a salt. Where two headings read alike, the source gives them in different places.

Key:
Type in all cases: cell-based
E. coli 257 = experiment: In vitro antibacterial activity (MIC, Mueller-Hinton broth); conditions: Escherichia coli, 257
Experimental: (§1) Drug dilutions are prepared in Mueller-Hinton broth ranging from 128 to 0.008 μg/ml. The diluted agents are dispensed in 100 μl amounts into the wells of a 96-well tray and used immediately or frozen at -10° to -70° C. until needed. Using an automated inoculator, 1.5 μl of a 10^-2 dilution of an overnight culture is added to each well of the tray. The tops of the trays are then sealed using transparent tape and incubated overnight at 37° C. The trays are examined with the aid of a viewer. The lowest concentration at which no growth is observed is considered to be the minimum inhibitory concentration (MIC).

E. coli 48 = experiment: In vitro antibacterial activity (MIC); conditions: Escherichia coli, 48
Experimental: as §1

S. pyogenes 503-782 = experiment: In vitro antibacterial activity (MIC); conditions: Streptococcus pyogenes, 503782; S. pyogenes 503-782; read-out: MIC
Experimental: as §1

S. marcescens S3 = experiment: In vitro antibacterial activity (MIC); conditions: Serratia marcescens; S. marcescens S3; read-out: MIC
Experimental: as §1

C. freundii 8ASM = experiment: In vitro antibacterial activity (MIC); conditions: Citrobacter freundii, 8ASM, C. freundii 8ASM; read-out: MIC
Experimental: as §1

S. pyogenes 4 = experiment: In vitro antibacterial activity (MIC); conditions: Streptococcus pyogenes, 4, S. pyogenes 4; read-out: MIC
Experimental: as §1

P. aeruginosa POW 151 = experiment: In vitro antibacterial activity (MIC); conditions: Pseudomonas aeruginosa, POW151
Experimental: as §1

P. mirabilis 2 = experiment: In vitro antibacterial activity (MIC); conditions: Proteus mirabilis, 2, P. mirabilis 2; read-out: MIC
Experimental: as §1

S. marcescens S714 = experiment: In vitro antibacterial activity (MIC); conditions: Serratia marcescens, S714, S. marcescens S714; read-out: MIC
Experimental: as §1

P. aeruginosa 503-56 = experiment: In vitro antibacterial activity (MIC)
Experimental: as §1

P. vulgaris 101 = experiment: In vitro antibacterial activity (MIC); conditions: Proteus vulgaris, 101, P. vulgaris 101; read-out: MIC
Experimental: as §1

K. pneumoniae 4964 = experiment: In vitro antibacterial activity (MIC); conditions: Klebsiella pneumoniae, 4964, K. pneumoniae 4964; read-out: MIC
Experimental: as §1

S. marcescens 5805 = experiment: In vitro antibacterial activity (MIC); conditions: Serratia marcescens, 5805, S. marcescens 5805; read-out: MIC
Experimental: as §1

S. pneumoniae 6301 = experiment: In vitro antibacterial activity (MIC); conditions: Streptococcus pneumoniae, 6301, S. pneumoniae 6301; read-out: MIC
Experimental: as §1

S. marcescens S147 = experiment: In vitro antibacterial activity (MIC); conditions: Serratia marcescens; S. marcescens S147; read-out: MIC
Experimental: as §1

K. pneumoniae 5096 = experiment: In vitro antibacterial activity (MIC); conditions: Klebsiella pneumoniae; K. pneumoniae 5096; read-out: MIC
Experimental: as §1

E. coli 5152 = experiment: In vitro antibacterial activity (MIC); conditions: Escherichia coli, 5152, E. coli 5152; read-out: MIC
Experimental: as §1

K. pneumoniae HE7 = experiment: In vitro antibacterial activity (MIC); conditions: Klebsiella pneumoniae; K. pneumoniae HE7; read-out: MIC
Experimental: as §1

E. cloacae 9570A = experiment: In vitro antibacterial activity (MIC); conditions: Enterobacter cloacae, read-out: MIC
Experimental: as §1

P. aeruginosa 8710 = experiment: In vitro antibacterial activity (MIC); conditions: Pseudomonas aeruginosa; P. aeruginosa 8710; read-out: MIC
Experimental: as §1

E. aerogenes 503-478 = experiment: In vitro antibacterial activity (MIC); conditions: Klebsiella aerogenes, 503478, E. aerogenes 503-478; read-out: MIC
Experimental: as §1

E. cloacae 5699 = experiment: In vitro antibacterial activity (MIC); conditions: Enterobacter cloacae, 5699, E. cloacae 5699; read-out: MIC
Experimental: as §1

E. cloacae 24 = experiment: In vitro antibacterial activity (MIC); conditions: Enterobacter cloacae, 24, E. cloacae 24; read-out: MIC
Experimental: as §1

S. pneumoniae SC = experiment: In vitro antibacterial activity (MIC); conditions: Streptococcus pneumoniae, read-out: MIC
Experimental: as §1

C. freundii CDC6 = experiment: In vitro antibacterial activity (MIC); conditions: Citrobacter freundii, CDC6
Experimental: as §1

E. cloacae 9295 = experiment: In vitro antibacterial activity (MIC); conditions: Enterobacter cloacae, 9295, E. cloacae 9295; read-out: MIC
Experimental: as §1

S. pneumoniae 6302 = experiment: In vitro antibacterial activity (MIC); conditions: Streptococcus pneumoniae, 6302, S. pneumoniae 6302; read-out: MIC
Experimental: as §1

S. schottmuelleri = experiment: In vitro antibacterial activity (MIC); conditions: read-out: MIC
Experimental: as §1

S. marcescens S1 = experiment: In vitro antibacterial activity (MIC); conditions: Serratia marcescens, S1, S. marcescens S1; read-out: MIC
Experimental: as §1

P. aeruginosa 6148B = experiment: In vitro antibacterial activity (MIC); conditions: Pseudomonas aeruginosa, read-out: MIC
Experimental: as §1

S. marcescens S4 = experiment: In vitro antibacterial activity (MIC); conditions: Serratia marcescens, S4, S. marcescens S4; read-out: MIC
Experimental: as §1

E. coli 387-1 = experiment: In vitro antibacterial activity (MIC); conditions: Escherichia coli, 3871
Experimental: as §1

K. pneumoniae 503-994 = experiment: In vitro antibacterial activity (MIC); conditions: Klebsiella pneumoniae, 503994, K. pneumoniae 503-994; read-out: MIC
Experimental: as §1

P. aeruginosa 5712 = experiment: In vitro antibacterial activity (MIC); conditions: Pseudomonas aeruginosa; P. aeruginosa 5712; read-out: MIC
Experimental: as §1

P. aeruginosa B = experiment: In vitro antibacterial activity (MIC); conditions: Pseudomonas aeruginosa, read-out: MIC
Experimental: as §1

E. cloacae 214 = experiment: In vitro antibacterial activity (MIC); conditions: Enterobacter cloacae, 214, E. cloacae 214; read-out: MIC
Experimental: as §1

P. vulgaris ATCC 6380 = experiment: In vitro antibacterial activity (MIC); conditions: Proteus vulgaris, ATCC6380, P. vulgaris ATCC 6380; read-out: MIC
Experimental: as §1

E. aerogenes 83 = experiment: In vitro antibacterial activity (MIC); conditions: Klebsiella aerogenes, 83, E. aerogenes 83; read-out: MIC
Experimental: as §1

K. pneumoniae 35 = experiment: In vitro antibacterial activity (MIC); conditions: Klebsiella pneumoniae; K. pneumoniae 35; read-out: MIC
Experimental: as §1

E. coli 4 = experiment: In vitro antibacterial activity (MIC); conditions: Escherichia coli, 4
Experimental: as §1

C. diversus CDC 1663-72 = experiment: In vitro antibacterial activity (MIC); conditions: Citrobacter koseri, CDC166372
Experimental: as §1

S. typhi P58A = experiment: In vitro antibacterial activity (MIC); conditions: Salmonella enterica, TYPHI
Experimental: as §1

## CC1(C)S[C@@H]2[C@H](N=CN3CCC(c4ncc[nH]4)CC3)C(=O)N2[C@H]1C(=O)O [O, [2S-(2alpha,5alpha,6beta)]-6-[[[4-(1H-imidazol-2-yl-1-piperidinyl]methylene]amino]-3,3-dimethyl-7-oxo-4-thia-1-azabicyclo[3.2.0]heptane-2-carboxylic acid hydrochloride trihydrate]
E. coli 257
  MIC: 0.125 µg/mL
E. coli 48
  MIC: 0.125 µg/mL
S. pyogenes 503-782
  MIC: 32 µg/mL
S. marcescens S3
  MIC: 0.25 µg/mL
C. freundii 8ASM
  MIC: 0.062 µg/mL
S. pyogenes 4
  MIC: 0.5 µg/mL
P. aeruginosa POW 151
  MIC: > 128 µg/mL
P. mirabilis 2
  MIC: 1 µg/mL
S. marcescens S714
  MIC: 1 µg/mL
P. aeruginosa 503-56; P. aeruginosa 503-56, hydrochloride trihydrate
  MIC: > 128 µg/mL
P. aeruginosa 503-56; Pseudomonas aeruginosa, 50356, P. aeruginosa 503-56, read-out: MIC
  MIC: 128 µg/mL
P. vulgaris 101
  MIC: 32 µg/mL
K. pneumoniae 4964
  MIC: 64 µg/mL
S. marcescens 5805
  MIC: 8 µg/mL
S. pneumoniae 6301
  MIC: 1 µg/mL
S. marcescens S147
  MIC: 0.25 µg/mL
K. pneumoniae 5096
  MIC: 64 µg/mL
E. coli 5152
  MIC: 16 µg/mL
K. pneumoniae HE7
  MIC: > 128 µg/mL
E. cloacae 9570A
  MIC: 0.5 µg/mL
P. aeruginosa 8710
  MIC: > 128 µg/mL
E. aerogenes 503-478
  MIC: > 128 µg/mL
E. cloacae 5699
  MIC: 0.5 µg/mL
E. cloacae 24
  MIC: 1 µg/mL
S. pneumoniae SC
  MIC: 1 µg/mL
C. freundii CDC6
  MIC: 0.125 µg/mL
E. cloacae 9295
  MIC: 1 µg/mL
S. pneumoniae 6302
  MIC: 1 µg/mL
S. schottmuelleri
  MIC: 0.125 µg/mL
S. marcescens S1
  MIC: 0.5 µg/mL
P. aeruginosa 6148B
  MIC: > 128 µg/mL
S. marcescens S4
  MIC: 2 µg/mL
E. coli 387-1
  MIC: 0.125 µg/mL
K. pneumoniae 503-994
  MIC: 0.5 µg/mL
P. aeruginosa 5712
  MIC: > 128 µg/mL
P. aeruginosa B
  MIC: 0.5 µg/mL
E. cloacae 214
  MIC: 0.5 µg/mL
P. vulgaris ATCC 6380
  MIC: 0.25 µg/mL
E. aerogenes 83
  MIC: 8 µg/mL
K. pneumoniae 35
  MIC: 1 µg/mL
E. coli 4
  MIC: 0.125 µg/mL
C. diversus CDC 1663-72
  MIC: 0.125 µg/mL
S. typhi P58A
  MIC: 0.125 µg/mL
